From patent US8470812B2, “Substituted benzo-pyrimido-tetrazolo-diazepine compounds” (ArQule, Inc., priority 2009, dated 2013) come the findings set out here.

Holding throughout (type): biochemical
One assay concerns the target CDK7 (Homo sapiens, UniProt P50613). Description: CDK7 kinase activity, mobility shift assay (MSA). The conditions noted are these: 10 μM compound; ATP 50, CTD3 peptide 1 uM; read-out: CDK7 inh. @ 10 μM (%). The protocol:
(§1) CAMKII and CDK7 activity was assayed using a mobility shift assay (MSA). Test inhibitors and controls (staurosporine) were prepared at 4× the desired final concentration. Test compound (5.0 μL), 4× substrate/ATP/metal solution (5.0 μL), and 2× kinase (10 μL) were added to each well of a reaction plate and incubated for 1 hr at room temperature. The assay components were diluted in assay buffer (20 mM HEPES pH 7.5, 0.01% Triton X-100, 2 mM DTT). To terminate the reaction, 60 μL of termination buffer (QuickScout Screening Assist MSA, Carna Biosciences) was added to each well. The reaction mixture was applied to the LabChip3000 system (Caliper Life Sciences) and the product and substrate peptide peaks were separated and quantified.

The target of the next assay is CaMK2δ (Homo sapiens, UniProt Q13557). As to the kind of experiment: CaMKII kinase activity, mobility shift assay (MSA). Particulars: 10 μM compound; ATP 5, GS peptide 1 uM; read-out: CaMK2δ inh. @ 10 μM (%). Here is the method:
as §1

For the next assay, the target named is CaMK2α (Homo sapiens, UniProt Q9UQM7). As to the kind of experiment: CaMKII kinase activity, mobility shift assay (MSA). The conditions noted are these: 10 μM compound; ATP 50, GS peptide 1 uM; read-out: CaMK2α inh. @ 10 μM (%). Here is the method: as §1
A further assay concerns the target CaMK2β (Homo sapiens, UniProt Q13554). Description: CaMKII kinase activity, mobility shift assay (MSA). Particulars: 10 μM compound; ATP 25, GS peptide 1 uM; read-out: CaMK2β inh. @ 10 μM (%). The protocol: as §1
The next assay concerns the target CaMK2γ (Homo sapiens, UniProt Q13555). As to the kind of experiment: CaMKII kinase activity, mobility shift assay (MSA). The conditions noted are these: 10 μM compound; ATP 25, GS peptide 1 uM; read-out: CaMK2γ inh. @ 10 μM (%). Here is the method: as §1

Sequence of CDK7 (P50613 whole entry, species assumed): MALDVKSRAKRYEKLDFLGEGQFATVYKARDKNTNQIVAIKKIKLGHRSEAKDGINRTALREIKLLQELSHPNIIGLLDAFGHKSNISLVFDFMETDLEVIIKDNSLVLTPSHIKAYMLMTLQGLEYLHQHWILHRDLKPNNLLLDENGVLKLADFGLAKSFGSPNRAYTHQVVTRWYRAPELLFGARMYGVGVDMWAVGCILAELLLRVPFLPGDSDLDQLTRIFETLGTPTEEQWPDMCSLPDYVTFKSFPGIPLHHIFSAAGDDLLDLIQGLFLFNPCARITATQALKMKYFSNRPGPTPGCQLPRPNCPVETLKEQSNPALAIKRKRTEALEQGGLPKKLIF
Sequence of CDK7 (P51946 whole entry partner, species assumed): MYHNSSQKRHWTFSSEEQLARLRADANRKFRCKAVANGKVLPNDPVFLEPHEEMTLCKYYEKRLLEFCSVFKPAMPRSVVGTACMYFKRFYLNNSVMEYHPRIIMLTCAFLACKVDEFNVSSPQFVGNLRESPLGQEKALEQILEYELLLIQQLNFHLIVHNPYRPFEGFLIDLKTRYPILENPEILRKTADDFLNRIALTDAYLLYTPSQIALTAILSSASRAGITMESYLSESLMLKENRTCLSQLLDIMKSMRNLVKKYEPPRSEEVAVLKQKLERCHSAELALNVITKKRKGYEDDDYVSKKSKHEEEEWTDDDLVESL
Sequence of CDK7 (P51948 whole entry partner, species assumed): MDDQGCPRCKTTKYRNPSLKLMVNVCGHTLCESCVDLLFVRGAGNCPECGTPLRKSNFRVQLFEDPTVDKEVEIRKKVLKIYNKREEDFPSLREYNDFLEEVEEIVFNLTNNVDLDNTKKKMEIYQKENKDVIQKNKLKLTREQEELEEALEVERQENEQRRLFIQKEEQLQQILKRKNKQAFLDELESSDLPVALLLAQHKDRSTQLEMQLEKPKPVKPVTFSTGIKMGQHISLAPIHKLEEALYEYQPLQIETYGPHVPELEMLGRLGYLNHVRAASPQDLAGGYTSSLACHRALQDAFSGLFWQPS

Consider `Fc1ccc(CN2c3ccccc3-n3nnnc3-c3cnc(NCCN4CCOCC4)nc32)cc1F` [Compound 18, 9-(3,4-difluorobenzyl)-N-(2-morpholin-4-ylethyl)-9H-pyrimido[5,4-c]tetrazolo[1,5-a][1,5]benzodiazepin-11-amine], for which the inhibition at 10 µM turned out to be 84% on CDK7; 32% on CaMK2δ; 42% on CaMK2α; 23% on CaMK2β; 12% at CaMK2γ.
